# Assay results: ChEMBL document CHEMBL1127091, “Design of 5-(3,5-di-tert-butyl-4-hydroxyphenyl)-1,3,4-thiadiazoles, -1,3,4-oxadiazoles, and -1,2,4-triazoles as orally-active, nonulcerogenic antiinflammatory agents” (J Med Chem, 1993)
# Legend:
# [1] = Partition coefficient (logP); assay type: physicochemical; conditions: octanol/water
# [2] = molecular target: T1, Polyunsaturated fatty acid 5-lipoxygenase (Rattus norvegicus, UniProt P12527)
# T1 sequence (P12527 whole entry): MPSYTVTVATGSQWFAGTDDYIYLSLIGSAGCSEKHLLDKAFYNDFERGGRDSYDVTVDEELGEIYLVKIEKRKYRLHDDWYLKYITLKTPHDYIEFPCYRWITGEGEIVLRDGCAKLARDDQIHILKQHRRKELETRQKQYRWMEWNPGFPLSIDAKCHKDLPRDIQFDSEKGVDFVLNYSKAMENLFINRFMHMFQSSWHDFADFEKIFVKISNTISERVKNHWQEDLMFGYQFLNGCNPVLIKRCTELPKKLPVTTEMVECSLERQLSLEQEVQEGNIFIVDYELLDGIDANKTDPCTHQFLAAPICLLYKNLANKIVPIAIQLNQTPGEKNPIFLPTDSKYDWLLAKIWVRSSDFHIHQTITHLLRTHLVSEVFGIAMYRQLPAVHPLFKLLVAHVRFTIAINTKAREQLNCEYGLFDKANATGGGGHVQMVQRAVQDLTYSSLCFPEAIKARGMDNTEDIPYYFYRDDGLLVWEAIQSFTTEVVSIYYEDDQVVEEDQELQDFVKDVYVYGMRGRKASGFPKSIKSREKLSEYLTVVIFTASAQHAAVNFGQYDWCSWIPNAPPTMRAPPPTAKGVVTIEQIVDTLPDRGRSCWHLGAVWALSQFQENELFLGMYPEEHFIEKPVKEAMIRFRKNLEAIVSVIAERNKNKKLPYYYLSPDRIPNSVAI
# Description: Inhibition of 5-lipoxygenase measured by the reduction of leukotriene B4 (LTB4) in intact basophilic rat leukemia cells
# Cyclooxygenase = molecular target: T2, Cyclooxygenase (Rattus norvegicus, UniProt P35355+Q63921)
# T2 sequence (P35355 whole entry): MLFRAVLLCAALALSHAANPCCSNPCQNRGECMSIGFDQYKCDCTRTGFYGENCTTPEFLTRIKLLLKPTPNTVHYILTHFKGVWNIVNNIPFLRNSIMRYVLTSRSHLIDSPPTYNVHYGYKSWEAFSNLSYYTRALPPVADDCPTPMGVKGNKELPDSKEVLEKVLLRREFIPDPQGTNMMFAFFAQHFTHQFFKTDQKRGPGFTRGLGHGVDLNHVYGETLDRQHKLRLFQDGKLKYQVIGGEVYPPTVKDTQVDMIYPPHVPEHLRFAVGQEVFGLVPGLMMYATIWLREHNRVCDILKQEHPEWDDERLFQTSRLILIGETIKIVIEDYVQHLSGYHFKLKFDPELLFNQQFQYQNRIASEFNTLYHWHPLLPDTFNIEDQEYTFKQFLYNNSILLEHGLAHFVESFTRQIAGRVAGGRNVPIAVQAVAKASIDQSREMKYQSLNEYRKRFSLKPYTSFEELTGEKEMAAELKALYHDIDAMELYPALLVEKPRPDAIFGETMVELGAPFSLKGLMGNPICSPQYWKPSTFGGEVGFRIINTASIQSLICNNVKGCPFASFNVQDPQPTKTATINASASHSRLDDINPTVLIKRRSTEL
# T2 sequence (Q63921 whole entry): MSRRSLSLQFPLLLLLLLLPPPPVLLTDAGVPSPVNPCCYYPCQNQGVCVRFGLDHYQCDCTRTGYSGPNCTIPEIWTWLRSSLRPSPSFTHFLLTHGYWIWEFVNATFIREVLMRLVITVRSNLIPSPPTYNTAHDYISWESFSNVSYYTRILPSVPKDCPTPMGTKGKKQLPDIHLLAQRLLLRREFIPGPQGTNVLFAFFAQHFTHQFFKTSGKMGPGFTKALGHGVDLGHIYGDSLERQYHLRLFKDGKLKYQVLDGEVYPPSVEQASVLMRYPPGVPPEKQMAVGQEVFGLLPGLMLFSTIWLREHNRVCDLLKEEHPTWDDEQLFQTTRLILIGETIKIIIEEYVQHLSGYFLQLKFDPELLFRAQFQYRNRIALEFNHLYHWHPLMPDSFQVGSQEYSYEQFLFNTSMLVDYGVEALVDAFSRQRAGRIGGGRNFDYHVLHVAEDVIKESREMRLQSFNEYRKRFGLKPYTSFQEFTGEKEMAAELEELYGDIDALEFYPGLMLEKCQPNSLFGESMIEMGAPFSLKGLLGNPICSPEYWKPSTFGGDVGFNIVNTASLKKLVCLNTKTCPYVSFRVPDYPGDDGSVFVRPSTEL
# Description: Inhibition of prostaglandin G/H synthase by measuring the reduction of prostaglandin F2-alpha in intact basophilic rat leukemia cells
# Rattus norvegicus [3] = assay: In vivo inflammatory activity measured on Carrageenan foot-pad edema (CFE) in rats, peroral administration; assay type: functional
# Rattus norvegicus [4] = assay: In vivo inflammatory activity measured on Gastric ulcerogenicity, expressed as percent rats with ulcers at 200 mg/kg, po (n= 10 rats per experimental group); assay type: functional, Stomach
# Rattus norvegicus [5] = assay: In vivo inflammatory activity measured on Mycobacterium foot-pad edema (MFE) model, peroral administration; assay type: functional
# [6] = molecular target: T1, Polyunsaturated fatty acid 5-lipoxygenase; remark: listed apart in the source
# Description: Tested for inhibition of 5-LO by measuring the reduction of leukotriene B4 (LTB4) in intact basophilic rat leukemia cells
# Rattus norvegicus [7] = assay: In vivo inflammatory activity measured on Gastric ulcerogenicity (n= 10 rats per experimental group); assay type: functional, Stomach
# Rattus norvegicus [8] = assay: In vivo inflammatory activity measured on Gastric ulcerogenicity, expressed as percent rats with ulcers at 10 mg/kg, po (n= 10 rats per experimental group); assay type: functional, Stomach
# Rattus norvegicus [9] = assay: In vivo inflammatory activity measured on Mycobacterium foot-pad edema (MFE) model; assay type: functional
# Rattus norvegicus [10] = assay: In vivo inflammatory activity measured on Gastric ulcerogenicity, (n= 10 rats per experimental group); assay type: functional, Stomach
SMILES,logP [1],IC50 [2],IC50 (Cyclooxygenase),other results
CC(C)(C)c1cc(-c2n[nH]c(=S)s2)cc(C(C)(C)C)c1O.C[N+](C)(C)CCO,2.7,–,–,Activity (Rattus norvegicus [4]): 0%; ID40 (Rattus norvegicus [3]): 1.1 mg/kg; ID40 (Rattus norvegicus [5]): 7.8 mg/kg
Cc1cc(/C=C/c2cc(C(C)(C)C)c(O)c(C(C)(C)C)c2)on1,> 4,–,–,ID40 (Rattus norvegicus [5]): 33 mg/kg
CC(C)(C)c1cc(/C=C/c2nnc(O)o2)cc(C(C)(C)C)c1O,3.4,0.21 µM,> 32 µM,–
CC(C)(C)c1cc(-c2n[nH]c(S)n2)cc(C(C)(C)C)c1O,2.4,11 µM,0.78 µM,–
CSc1nnc(-c2cc(C(C)(C)C)c(O)c(C(C)(C)C)c2)s1,> 4,1.2 µM,0.41 µM,–
CC(C)(C)c1cc(/C=C/c2n[nH]c(O)n2)cc(C(C)(C)C)c1O,3.8,1.6 µM,> 32 µM,–
CC(C)(C)c1cc(/C=C/c2nnc(N)o2)cc(C(C)(C)C)c1O,–,1.1 µM,8 µM,–
CC(C)(C)c1cc(/C=C/c2nnc(S)o2)cc(C(C)(C)C)c1O,3,0.58 µM,9.4 µM,–
CSc1nnc(/C=C/c2cc(C(C)(C)C)c(O)c(C(C)(C)C)c2)s1,–,> 10 µM,> 10 µM,–
CC(C)(C)c1cc(/C=C/c2n[nH]c(S)n2)cc(C(C)(C)C)c1O,3.1,2.4 µM,6.7 µM,–
CC(C)(C)c1cc(/C=C2\CCOC2=O)cc(C(C)(C)C)c1O,> 4,–,–,ID40 (Rattus norvegicus [3]): >10 mg/kg; ID40 (Rattus norvegicus [5]): 3.7 mg/kg; UD50 (Rattus norvegicus [7]): 93.1 mg/kg
CON1CC/C(=C\c2cc(C(C)(C)C)c(O)c(C(C)(C)C)c2)C1=O [E-5110],> 4,–,–,Activity (Rattus norvegicus [8]): 10%; ID40 (Rattus norvegicus [3]): 24.1 mg/kg; ID40 (Rattus norvegicus [9]): 1.9 mg/kg
Cc1ccc(Cl)c(Nc2ccccc2C(=O)O)c1Cl [MECLOFENAMIC ACID],–,–,–,ID40 (Rattus norvegicus [3]): 5.6 mg/kg; ID40 (Rattus norvegicus [5]): 0.35 mg/kg; UD50 (Rattus norvegicus [10]): 36.2 mg/kg

# Now from value to compound, other results behind:
logP [1],IC50 [2],IC50 (Cyclooxygenase),SMILES,other results
3.1,5.1 µM,> 30 µM,CC(C)(C)c1cc(-c2n[nH]c(N)n2)cc(C(C)(C)C)c1O,–
3.7,0.7 µM,2.4 µM,CC(C)(C)c1cc(-c2nnc(N)o2)cc(C(C)(C)C)c1O,ID40 (Rattus norvegicus [3]): 8.2 mg/kg
3.1,–,5.5 µM,CC(C)(C)c1cc(-c2n[nH]c(O)n2)cc(C(C)(C)C)c1O,–
3.7,> 32 µM,> 32 µM,Cn1c(S)nnc1-c1cc(C(C)(C)C)c(O)c(C(C)(C)C)c1,–
3.2,–,–,Cn1c(O)nnc1-c1cc(C(C)(C)C)c(O)c(C(C)(C)C)c1,–
4,5.9 µM,> 16 µM,CC(C)(C)c1cc(-c2nnc(O)s2)cc(C(C)(C)C)c1O,–
–,–,0.35 µM,COc1c(C(C)(C)C)cc(-c2nnc(S)s2)cc1C(C)(C)C,IC50 [6]: 0.92 µM
3.4,–,2.5 µM,CC(C)(C)c1cc(-c2nnc(O)o2)cc(C(C)(C)C)c1O,–
–,–,0.65 µM,Cn1nc(-c2cc(C(C)(C)C)c(O)c(C(C)(C)C)c2)sc1=S,IC50 [6]: 5 µM
3.3,> 32 µM,> 32 µM,CC(C)(C)c1cc(-c2nnc(S)n2N)cc(C(C)(C)C)c1O,–
2.3,4.8 µM,3.7 µM,CC(C)(C)c1cc(-c2nnc(S)o2)cc(C(C)(C)C)c1O,ID40 (Rattus norvegicus [3]): 3.9 mg/kg; ID40 (Rattus norvegicus [5]): 59.9 mg/kg
3.7,–,0.13 µM,CC(C)(C)c1cc(-c2nnc(N)s2)cc(C(C)(C)C)c1O,Activity (Rattus norvegicus [4]): 10%; ID40 (Rattus norvegicus [3]): 1.9 mg/kg; ID40 (Rattus norvegicus [5]): 2.3 mg/kg
> 4,1.8 µM,5.2 µM,CC(C)(C)c1cc(/C=C/c2nnc(S)s2)cc(C(C)(C)C)c1O,–
